{
  "source": "patent US10888099B2",
  "about": "“Granulation of a Stevia sweetener” (PureCircle Sdn Bhd, priority 2009, dated 2021)",
  "key": {"[1]": {"settings": "standard sweetening power, Saccharose = 1; cited from earlier work"}, "[2]": {"settings": "cited from earlier work"}, "[3]": {"settings": "cited from earlier work; for solubility: known Rebaudioside A forms, g soluble in 100 g solvent"}, "[4]": {"type": "physicochemical", "experimental": "Hereinafter, unless specified otherwise, the solubility of a material is determined in reverse osmosis water at room temperature. […] The obtained powder was loaded into a 1000 L rotary vacuum dryer and dried at 105° C. at 10 mbar pressure for 3 hours. After 3 hours, preheated nitrogen at 100° C. was introduced into the vacuum chamber till ambient pressure was reached. Upon reaching ambient pressure, the vacuum dryer was connected to a vent and the nitrogen flow was continued at 100 L/min for a 4-hour time period. […] A sample of the powder was withdrawn from the dryer and the solubility tested in deionized water at room temperature."}},
  "note": "Like-named read-outs stand apart in the source and are kept apart here. Where a SMILES comes first, the peptide text is derived from it.",
  "data": [
    {"compound": "CC1=CC(=O)NS(=O)(=O)O1", "note": "[Acesulfame-K]", "values": [
      {"measurement": "Sweetness power", "setting": "[1]", "value": 200}
    ]},
    {"compound": "C[C@@H](NC(=O)[C@@H](N)CC(=O)O)C(=O)NC1C(C)(C)SC1(C)C", "note": "[Alitame]", "values": [
      {"measurement": "Sweetness power", "setting": "[1]", "value": 2000}
    ]},
    {"compound": "COC(=O)[C@H](Cc1ccccc1)NC(=O)[C@@H](N)CC(=O)O", "note": "[Aspartame] (H-Asp-Phe-OMe)", "values": [
      {"measurement": "Sweetness power", "setting": "[1]", "value": 200}
    ]},
    {"compound": "C=C1C[C@@]23CC[C@H]4[C@@](C)(CCC[C@@]4(C)C(=O)O[C@@H]4O[C@H](CO)[C@@H](O)[C@H](O)[C@H]4O)[C@@H]2CC[C@]1(O[C@@H]1O[C@H](CO)[C@@H](O)[C@H](O[C@@H]2O[C@H](CO)[C@@H](O)[C@H](O)[C@H]2O)[C@H]1O[C@@H]1O[C@H](CO)[C@@H](O)[C@H](O)[C@H]1O)C3", "note": "[Form 1, Rebaudioside A]", "values": [
      {"measurement": "Rate of dissolution in H2O at 25° C.", "setting": "[2]; grade in words", "value": "Very low"},
      {"measurement": "Rate of dissolution in H2O at 25° C.", "setting": "[2]; in 60 minutes", "value": "(<0.2% in"},
      {"measurement": "solubility (in words)", "setting": "[3]; compared among Rebaudioside A forms", "value": "lowest solubility"},
      {"measurement": "solubility", "setting": "[3]; listed as hydrate form", "value": "less than 0.2%"}
    ]},
    {"compound": "C=C1C[C@@]23CC[C@H]4[C@@](C)(CCC[C@@]4(C)C(=O)O[C@@H]4O[C@H](CO)[C@@H](O)[C@H](O)[C@H]4O)[C@@H]2CC[C@]1(O[C@@H]1O[C@H](CO)[C@@H](O)[C@H](O[C@@H]2O[C@H](CO)[C@@H](O)[C@H](O)[C@H]2O)[C@H]1O[C@@H]1O[C@H](CO)[C@@H](O)[C@H](O)[C@H]1O)C3", "note": "[Form 2, Rebaudioside A]", "values": [
      {"measurement": "Rate of dissolution in H2O at 25° C.", "setting": "[2]; grade in words", "value": "Intermediate"},
      {"measurement": "Rate of dissolution in H2O at 25° C.", "setting": "[2]; in 5 minutes", "value": "(<30% in 5"},
      {"measurement": "solubility", "setting": "[3]; listed as anhydrous form of Rebaudioside A", "value": "up to 30%"},
      {"measurement": "solubility", "setting": "[3]; listed as anhydrous form", "value": "up to 30%"}
    ]},
    {"compound": "C=C1C[C@@]23CC[C@H]4[C@@](C)(CCC[C@@]4(C)C(=O)O[C@@H]4O[C@H](CO)[C@@H](O)[C@H](O)[C@H]4O)[C@@H]2CC[C@]1(O[C@@H]1O[C@H](CO)[C@@H](O)[C@H](O[C@@H]2O[C@H](CO)[C@@H](O)[C@H](O)[C@H]2O)[C@H]1O[C@@H]1O[C@H](CO)[C@@H](O)[C@H](O)[C@H]1O)C3", "note": "[Form 3, Rebaudioside A]", "values": [
      {"measurement": "Rate of dissolution in H2O at 25° C.", "setting": "[2]; grade in words", "value": "High"},
      {"measurement": "Rate of dissolution in H2O at 25° C.", "setting": "[2]; in 5 minutes", "value": "(>30% in"},
      {"measurement": "solubility", "setting": "[3]; listed as solvate form", "value": "greater than 30%"}
    ]},
    {"compound": "C=C1C[C@@]23CC[C@H]4[C@@](C)(CCC[C@@]4(C)C(=O)O[C@@H]4O[C@H](CO)[C@@H](O)[C@H](O)[C@H]4O)[C@@H]2CC[C@]1(O[C@@H]1O[C@H](CO)[C@@H](O)[C@H](O[C@@H]2O[C@H](CO)[C@@H](O)[C@H](O)[C@H]2O)[C@H]1O[C@@H]1O[C@H](CO)[C@@H](O)[C@H](O)[C@H]1O)C3", "note": "[Form 4, Rebaudioside A]", "values": [
      {"measurement": "Rate of dissolution in H2O at 25° C.", "setting": "[2]; grade in words", "value": "High"},
      {"measurement": "Rate of dissolution in H2O at 25° C.", "setting": "[2]; in 5 minutes", "value": "(>35% in"},
      {"measurement": "solubility", "setting": "[3]; listed as amorphous form", "value": "greater than 35%"}
    ]},
    {"compound": "CC1(C)[C@@H](O[C@H]2O[C@H](C(=O)O)[C@@H](O)[C@H](O)[C@H]2O[C@@H]2O[C@H](C(=O)O)[C@@H](O)[C@H](O)[C@H]2O)CC[C@]2(C)[C@H]3C(=O)C=C4[C@@H]5C[C@@](C)(C(=O)O)CC[C@]5(C)CC[C@@]4(C)[C@]3(C)CC[C@@H]12", "note": "[Glycyrrhizin]", "values": [
      {"measurement": "Sweetness power", "setting": "[1]", "value": 50}
    ]},
    {"compound": "COc1ccc(CCC(=O)c2c(O)cc(O[C@@H]3O[C@H](CO)[C@@H](O)[C@H](O)[C@H]3O[C@@H]3O[C@@H](C)[C@H](O)[C@@H](O)[C@H]3O)cc2O)cc1O", "note": "[NHDC, neohesperidin dihydrochalcone]", "values": [
      {"measurement": "Sweetness power", "setting": "[1]", "value": 1000}
    ]},
    {"compound": "C=C1C[C@@]23CC[C@H]4[C@@](C)(CCC[C@@]4(C)C(=O)O[C@@H]4O[C@H](CO)[C@@H](O)[C@H](O)[C@H]4O)[C@@H]2CC[C@]1(O[C@@H]1O[C@H](CO)[C@@H](O)[C@H](O[C@@H]2O[C@H](CO)[C@@H](O)[C@H](O)[C@H]2O)[C@H]1O[C@@H]1O[C@H](CO)[C@@H](O)[C@H](O)[C@H]1O)C3", "note": "[Rebaudioside A]", "values": [
      {"measurement": "Sweetness power", "setting": "[1]", "value": 450},
      {"measurement": "solubility", "setting": "[4]", "value": 1.6, "unit": "%"}
    ]},
    {"compound": "O=C1NS(=O)(=O)c2ccccc21", "note": "[Saccharine]", "values": [
      {"measurement": "Sweetness power", "setting": "[1]", "value": 300}
    ]},
    {"compound": "OC[C@H]1O[C@@](CO)(O[C@H]2O[C@H](CO)[C@@H](O)[C@H](O)[C@H]2O)[C@@H](O)[C@@H]1O", "note": "[Saccharose]", "values": [
      {"measurement": "Sweetness power", "setting": "[1]", "value": 1}
    ]},
    {"compound": "C=C1C[C@@]23CC[C@H]4[C@@](C)(CCC[C@@]4(C)C(=O)O[C@@H]4O[C@H](CO)[C@@H](O)[C@H](O)[C@H]4O)[C@@H]2CC[C@]1(O[C@@H]1O[C@H](CO)[C@@H](O)[C@H](O)[C@H]1O[C@@H]1O[C@H](CO)[C@@H](O)[C@H](O)[C@H]1O)C3", "note": "[Stevioside]", "values": [
      {"measurement": "Sweetness power", "setting": "[1]", "value": 200}
    ]},
    {"compound": "OC[C@H]1O[C@H](O[C@]2(CCl)O[C@H](CCl)[C@@H](O)[C@@H]2O)[C@H](O)[C@@H](O)[C@H]1Cl", "note": "[Sucralose]", "values": [
      {"measurement": "Sweetness power", "setting": "[1]", "value": 600}
    ]},
    {"compound": "C=C1C[C@@]23CC[C@H]4[C@@](C)(CCC[C@@]4(C)C(=O)O[C@@H]4O[C@H](CO)[C@@H](O)[C@H](O)[C@H]4O)[C@@H]2CC[C@]1(O[C@@H]1O[C@H](CO)[C@@H](O)[C@H](O[C@@H]2O[C@H](CO)[C@@H](O)[C@H](O)[C@H]2O)[C@H]1O[C@@H]1O[C@H](CO)[C@@H](O)[C@H](O)[C@H]1O)C3", "note": "[high solubility Rebaudioside A powder, Rebaudioside A]", "values": [
      {"measurement": "dissolution time", "setting": "[4]; deionized water at room temperature", "value": 7, "unit": "min"}
    ]},
    {"compound": "Thaumatin", "values": [
      {"measurement": "Sweetness power", "setting": "[1]", "value": 3000}
    ]}
  ]
}
